Measurements as given in patent publication US20120058499A1, “Bioluminescent Detection of Protease Activity” (priority 2010, published 2012).

Columns and labels:
AMSH = molecular target: T1, AMSH (Homo sapiens, UniProt O95630); assay: Platform comparison of DUB substrates, signal to background; type: biochemical; details: DUB 10 nM; signal at 30 minutes; Ub-LUC 100 nM, DUB-Glo substrate 20 μM, Ub-AMC/Ub-rho 250 nM
T1 sequence (O95630 1-424): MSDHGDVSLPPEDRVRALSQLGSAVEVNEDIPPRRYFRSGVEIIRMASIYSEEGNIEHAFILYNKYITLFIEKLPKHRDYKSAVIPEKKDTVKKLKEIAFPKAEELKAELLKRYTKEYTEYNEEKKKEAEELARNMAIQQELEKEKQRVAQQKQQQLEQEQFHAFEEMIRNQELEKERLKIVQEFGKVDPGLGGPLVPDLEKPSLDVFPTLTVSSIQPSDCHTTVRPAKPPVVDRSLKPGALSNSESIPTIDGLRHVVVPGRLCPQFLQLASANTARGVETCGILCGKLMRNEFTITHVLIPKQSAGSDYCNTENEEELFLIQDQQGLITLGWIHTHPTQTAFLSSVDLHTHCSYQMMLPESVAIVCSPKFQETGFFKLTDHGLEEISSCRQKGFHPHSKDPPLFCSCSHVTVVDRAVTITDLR
Protocol: (§1) For Ub-AMC and Ub-Rhodamine110, all enzymes were diluted into 50 mM Tris, pH 8.0, 5 mM DTT, 0.05% CHAPS to a final concentration of 10 nM. […] Either Ub-AMC or Ub-Rhodamine110 (final reaction concentration equal to 250 nM) were diluted into 50 mM Tris, pH 8.0, 5 mM DTT, 0.05% (w/v) CHAPS. […] For Ub-Rhodamine110, fluorescence was monitored with filters corresponding to excitation at 485 nm and emission at 531 nm.

Ataxin3 = Ataxin3 (Homo sapiens, UniProt P54252); assay: as above; type: biochemical; details: DUB 10 nM; signal at 30 minutes; Ub-LUC 100 nM, DUB-Glo substrate 20 μM, Ub-AMC/Ub-rho 250 nM
Chain of Ataxin3 (P54252 whole entry, species assumed): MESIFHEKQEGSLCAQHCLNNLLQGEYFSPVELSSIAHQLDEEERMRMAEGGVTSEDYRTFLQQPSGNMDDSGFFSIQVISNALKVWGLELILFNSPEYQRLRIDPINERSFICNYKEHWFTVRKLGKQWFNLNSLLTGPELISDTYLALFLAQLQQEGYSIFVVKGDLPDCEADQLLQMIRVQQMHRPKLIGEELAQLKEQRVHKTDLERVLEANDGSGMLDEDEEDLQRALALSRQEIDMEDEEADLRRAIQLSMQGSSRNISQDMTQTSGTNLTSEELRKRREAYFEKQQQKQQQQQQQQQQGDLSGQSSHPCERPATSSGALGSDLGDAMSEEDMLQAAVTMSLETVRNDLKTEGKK
Protocol: as §1

Ataxin3-like = molecular target: T2, Ataxin3-like (Homo sapiens, UniProt Q9H3M9); assay: as above; type: biochemical; details: DUB 10 nM; signal at 30 minutes; Ub-LUC 100 nM, DUB-Glo substrate 20 μM, Ub-AMC/Ub-rho 250 nM
T2 sequence (Q9H3M9 1-355): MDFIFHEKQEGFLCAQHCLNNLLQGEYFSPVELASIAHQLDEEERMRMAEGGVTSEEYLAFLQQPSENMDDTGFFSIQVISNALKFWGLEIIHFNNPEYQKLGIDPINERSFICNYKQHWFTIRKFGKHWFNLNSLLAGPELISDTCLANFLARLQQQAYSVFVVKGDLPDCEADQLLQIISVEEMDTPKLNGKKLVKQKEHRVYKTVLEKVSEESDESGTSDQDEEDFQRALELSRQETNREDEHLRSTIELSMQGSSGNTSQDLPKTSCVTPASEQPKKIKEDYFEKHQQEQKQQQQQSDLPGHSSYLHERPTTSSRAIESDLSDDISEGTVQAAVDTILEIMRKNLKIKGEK
Protocol: as §1

JosD1 = JosD1 (Homo sapiens, UniProt Q15040); assay: as above; type: biochemical; details: DUB 10 nM; signal at 30 minutes; Ub-LUC 100 nM, DUB-Glo substrate 20 μM, Ub-AMC/Ub-rho 250 nM
Protocol: as §1

JosD2 = molecular target: T3, JosD2 (Homo sapiens, UniProt Q8TAC2); assay: as above; type: biochemical; details: DUB 10 nM; signal at 30 minutes; Ub-LUC 100 nM, DUB-Glo substrate 20 μM, Ub-AMC/Ub-rho 250 nM
T3 sequence (Q8TAC2 1-188): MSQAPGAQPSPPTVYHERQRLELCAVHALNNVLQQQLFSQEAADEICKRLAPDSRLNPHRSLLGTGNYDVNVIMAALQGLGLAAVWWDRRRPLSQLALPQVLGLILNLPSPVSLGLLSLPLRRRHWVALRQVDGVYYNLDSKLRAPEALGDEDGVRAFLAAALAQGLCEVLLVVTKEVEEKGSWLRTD
Protocol: as §1

Otub2 = molecular target: T4, Otub2 (Homo sapiens, UniProt Q96DC9); assay: as above; type: biochemical; details: DUB 10 nM; signal at 30 minutes; Ub-LUC 100 nM, DUB-Glo substrate 20 μM, Ub-AMC/Ub-rho 250 nM
T4 sequence (Q96DC9 1-234): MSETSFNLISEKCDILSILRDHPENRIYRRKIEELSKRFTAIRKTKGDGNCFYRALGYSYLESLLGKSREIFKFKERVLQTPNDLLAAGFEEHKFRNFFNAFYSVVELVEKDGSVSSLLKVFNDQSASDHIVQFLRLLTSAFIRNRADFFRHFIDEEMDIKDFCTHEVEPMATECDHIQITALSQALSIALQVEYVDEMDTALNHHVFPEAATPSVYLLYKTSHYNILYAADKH
Protocol: as §1

UCHL5 = molecular target: T5, UCHL5 (Homo sapiens, UniProt Q9Y5K5); assay: as above; type: biochemical; details: DUB 10 nM; signal at 30 minutes; Ub-LUC 100 nM, DUB-Glo substrate 20 μM, Ub-AMC/Ub-rho 250 nM
T5 sequence (Q9Y5K5 1-329): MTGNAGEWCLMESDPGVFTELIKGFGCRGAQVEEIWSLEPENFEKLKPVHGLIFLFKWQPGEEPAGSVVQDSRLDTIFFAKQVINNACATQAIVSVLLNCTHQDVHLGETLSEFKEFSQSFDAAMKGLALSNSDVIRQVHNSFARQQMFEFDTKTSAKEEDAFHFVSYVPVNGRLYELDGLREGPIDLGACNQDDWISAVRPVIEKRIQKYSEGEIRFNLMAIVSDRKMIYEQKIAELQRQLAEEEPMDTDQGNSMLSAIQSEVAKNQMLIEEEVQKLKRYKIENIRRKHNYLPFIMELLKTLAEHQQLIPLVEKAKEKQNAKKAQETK
Protocol: as §1

USP14 = USP14 (Homo sapiens, UniProt P54578); assay: as above; type: biochemical; details: DUB 10 nM; signal at 30 minutes; Ub-LUC 100 nM, DUB-Glo substrate 20 μM, Ub-AMC/Ub-rho 250 nM
Chain of USP14 (P54578 whole entry, species assumed): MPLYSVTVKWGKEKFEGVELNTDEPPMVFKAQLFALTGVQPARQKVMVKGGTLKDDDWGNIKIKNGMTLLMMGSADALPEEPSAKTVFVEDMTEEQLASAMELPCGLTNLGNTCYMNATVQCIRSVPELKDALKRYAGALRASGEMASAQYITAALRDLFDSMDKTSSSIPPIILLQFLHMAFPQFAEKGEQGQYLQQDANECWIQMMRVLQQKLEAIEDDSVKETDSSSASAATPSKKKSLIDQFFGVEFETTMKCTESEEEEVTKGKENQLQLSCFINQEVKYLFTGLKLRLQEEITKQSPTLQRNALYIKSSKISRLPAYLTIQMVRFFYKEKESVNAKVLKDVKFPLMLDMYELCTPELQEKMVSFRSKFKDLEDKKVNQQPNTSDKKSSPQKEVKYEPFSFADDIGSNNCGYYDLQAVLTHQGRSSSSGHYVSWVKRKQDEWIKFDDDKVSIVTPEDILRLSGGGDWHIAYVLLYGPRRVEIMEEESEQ
Protocol: as §1

[1] = tested on: Otub2, JosD1, JosD2, AMSH, Ataxin3, Ataxin3-like, UCHL5, USP20, and USP14; assay: Substrate comparison on panel of nine isopeptidases; type: biochemical; details: seven of nine DUBs (exceptions JosD2 and UCHL5)
Protocol: as §1

isopeptidase T = molecular target: T6, isopeptidase T (Homo sapiens, UniProt P45974); details: Dang et al., 1998; cited from earlier work
T6 sequence (P45974 1-858): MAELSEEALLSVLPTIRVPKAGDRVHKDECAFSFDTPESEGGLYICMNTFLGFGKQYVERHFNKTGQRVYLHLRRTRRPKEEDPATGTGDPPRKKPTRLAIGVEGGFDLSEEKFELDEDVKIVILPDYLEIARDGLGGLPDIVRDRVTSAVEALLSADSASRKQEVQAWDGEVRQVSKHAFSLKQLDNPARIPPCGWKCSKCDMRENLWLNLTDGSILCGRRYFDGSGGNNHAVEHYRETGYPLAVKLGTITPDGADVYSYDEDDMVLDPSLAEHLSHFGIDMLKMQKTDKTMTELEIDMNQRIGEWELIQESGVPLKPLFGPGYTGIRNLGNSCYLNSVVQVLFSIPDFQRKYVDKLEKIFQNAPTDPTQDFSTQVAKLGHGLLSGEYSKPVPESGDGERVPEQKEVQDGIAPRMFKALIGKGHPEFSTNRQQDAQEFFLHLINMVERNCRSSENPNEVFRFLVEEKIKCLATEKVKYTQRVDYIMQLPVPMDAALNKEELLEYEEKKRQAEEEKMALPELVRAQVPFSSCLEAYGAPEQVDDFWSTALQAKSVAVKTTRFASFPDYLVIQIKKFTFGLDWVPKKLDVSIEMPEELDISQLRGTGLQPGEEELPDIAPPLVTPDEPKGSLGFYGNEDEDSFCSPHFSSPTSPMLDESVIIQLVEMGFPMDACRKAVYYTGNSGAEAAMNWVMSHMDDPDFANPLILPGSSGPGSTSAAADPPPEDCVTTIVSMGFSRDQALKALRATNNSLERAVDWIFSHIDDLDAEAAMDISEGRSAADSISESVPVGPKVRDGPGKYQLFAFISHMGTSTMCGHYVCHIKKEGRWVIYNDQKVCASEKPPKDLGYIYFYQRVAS

Substance	Signal to Background value (AMSH)	Signal to Background value (Ataxin3)	Signal to Background value (Ataxin3-like)	Signal to Background value (JosD1)	Signal to Background value (JosD2)	Signal to Background value (Otub2)	Signal to Background value (UCHL5)	Signal to Background value (USP14)	detectable activity (S/B>3) [1]	relative catalytic efficiency (kcat/Km), fold higher than AMC derivative of Z-Leu-Arg-Gly-Gly peptide (isopeptidase T)	detectable activity (S/B>3) ([1]; listed as Ub-Rhodamine110)	detectable activity (S/B>3) ([1]; listed as Ub-rhodamine110)
ubiquitin-7-amino-4-methylcoumarin [Ub-AMC]	1.0	0.9	1.1	1.1	2.1	1.2	8.1	1.0	little to no detectable activity	~8000 fold	–	–
ubiquitin-rhodamine110 [Ub-rho]	1.2	1.3	1.6	1.5	8.2	1.7	103	–	–	–	no detectable activity	little to no detectable activity
